Consider five molecules from ChEMBL document CHEMBL1201862, “PubChem BioAssay data set” (2004).

Active and inactive are the calls of the source.

Common to all, as to type: functional
Test [1] has as its target T1, Apoptotic protease-activating factor 1 (Homo sapiens, UniProt O14727).
T1 sequence (O14727 whole entry): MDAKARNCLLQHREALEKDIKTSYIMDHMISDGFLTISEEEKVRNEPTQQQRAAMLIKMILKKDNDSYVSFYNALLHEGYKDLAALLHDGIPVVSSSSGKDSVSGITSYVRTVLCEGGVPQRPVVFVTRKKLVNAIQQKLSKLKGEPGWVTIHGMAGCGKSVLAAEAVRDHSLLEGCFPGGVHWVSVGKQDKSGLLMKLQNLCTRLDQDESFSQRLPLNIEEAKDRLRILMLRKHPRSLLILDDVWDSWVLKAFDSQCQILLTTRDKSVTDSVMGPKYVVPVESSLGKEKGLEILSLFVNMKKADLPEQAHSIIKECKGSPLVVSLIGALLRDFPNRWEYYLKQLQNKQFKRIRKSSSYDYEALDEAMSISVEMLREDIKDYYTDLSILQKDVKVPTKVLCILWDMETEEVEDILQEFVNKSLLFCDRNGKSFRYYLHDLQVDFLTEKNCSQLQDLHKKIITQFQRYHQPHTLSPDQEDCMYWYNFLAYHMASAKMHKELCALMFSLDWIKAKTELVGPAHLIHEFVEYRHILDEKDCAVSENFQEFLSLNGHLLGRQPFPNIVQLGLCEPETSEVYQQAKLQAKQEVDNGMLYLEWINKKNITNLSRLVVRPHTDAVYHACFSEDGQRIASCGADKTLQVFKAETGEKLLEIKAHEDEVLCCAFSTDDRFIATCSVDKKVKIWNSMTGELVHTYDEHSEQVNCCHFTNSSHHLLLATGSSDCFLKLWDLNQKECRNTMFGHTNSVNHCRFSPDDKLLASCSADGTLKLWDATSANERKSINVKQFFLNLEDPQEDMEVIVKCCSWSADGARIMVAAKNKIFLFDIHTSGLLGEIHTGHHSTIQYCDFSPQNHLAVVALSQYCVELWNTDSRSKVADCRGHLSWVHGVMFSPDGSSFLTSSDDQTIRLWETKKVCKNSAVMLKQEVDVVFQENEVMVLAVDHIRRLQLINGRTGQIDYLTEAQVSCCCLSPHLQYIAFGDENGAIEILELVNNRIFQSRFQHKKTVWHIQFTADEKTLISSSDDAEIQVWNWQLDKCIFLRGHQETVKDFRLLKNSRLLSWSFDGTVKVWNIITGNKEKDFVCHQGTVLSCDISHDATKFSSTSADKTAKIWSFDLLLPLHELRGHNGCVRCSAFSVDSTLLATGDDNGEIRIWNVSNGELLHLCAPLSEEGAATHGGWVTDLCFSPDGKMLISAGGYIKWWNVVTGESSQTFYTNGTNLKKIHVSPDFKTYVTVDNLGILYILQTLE

Test [2] deals with Protein kinase C theta type (Homo sapiens, UniProt Q04759). Briefly: Navigating the Kinome. Panel member name: PRKCQ.
In test [3] the target is Tyrosine-protein kinase JAK2 (Homo sapiens, UniProt O60674).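 Note: JAK2 tested as one member of a kinase panel.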
Chain of Tyrosine-protein kinase JAK2 (O60674 whole entry): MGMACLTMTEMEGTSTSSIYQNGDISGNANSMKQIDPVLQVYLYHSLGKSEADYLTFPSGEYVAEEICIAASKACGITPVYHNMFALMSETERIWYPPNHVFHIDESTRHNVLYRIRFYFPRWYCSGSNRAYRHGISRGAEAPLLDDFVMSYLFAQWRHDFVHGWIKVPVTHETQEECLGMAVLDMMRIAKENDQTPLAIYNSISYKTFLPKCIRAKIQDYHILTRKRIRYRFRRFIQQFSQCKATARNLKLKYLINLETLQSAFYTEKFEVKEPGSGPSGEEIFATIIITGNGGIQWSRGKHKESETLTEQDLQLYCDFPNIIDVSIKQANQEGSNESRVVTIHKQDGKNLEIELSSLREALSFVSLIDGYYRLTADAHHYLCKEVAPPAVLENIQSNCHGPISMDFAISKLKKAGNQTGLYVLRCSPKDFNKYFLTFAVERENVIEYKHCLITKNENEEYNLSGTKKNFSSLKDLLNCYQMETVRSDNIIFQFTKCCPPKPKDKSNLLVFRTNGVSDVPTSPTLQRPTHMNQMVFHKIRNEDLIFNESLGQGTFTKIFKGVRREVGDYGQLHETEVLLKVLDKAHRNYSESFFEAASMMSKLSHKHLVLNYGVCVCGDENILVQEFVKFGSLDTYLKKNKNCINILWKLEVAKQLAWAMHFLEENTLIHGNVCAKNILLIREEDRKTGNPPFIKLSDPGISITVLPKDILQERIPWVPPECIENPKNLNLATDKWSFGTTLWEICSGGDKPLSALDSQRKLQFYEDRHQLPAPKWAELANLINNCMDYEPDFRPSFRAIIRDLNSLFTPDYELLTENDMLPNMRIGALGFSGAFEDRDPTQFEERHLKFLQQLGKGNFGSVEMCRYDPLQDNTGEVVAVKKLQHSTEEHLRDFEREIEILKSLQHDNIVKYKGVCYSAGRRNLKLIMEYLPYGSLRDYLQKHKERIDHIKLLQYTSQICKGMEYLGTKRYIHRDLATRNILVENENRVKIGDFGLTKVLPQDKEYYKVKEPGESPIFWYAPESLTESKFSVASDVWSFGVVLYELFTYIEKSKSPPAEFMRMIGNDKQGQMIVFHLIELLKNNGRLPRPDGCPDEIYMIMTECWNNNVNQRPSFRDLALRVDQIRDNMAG
In another test the target is T2, Aurora kinase A (Homo sapiens, UniProt O14965).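 Note: value from the Navigating the Kinome kinase panel profiling, panel entry STK6.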
T2 sequence (O14965 whole entry): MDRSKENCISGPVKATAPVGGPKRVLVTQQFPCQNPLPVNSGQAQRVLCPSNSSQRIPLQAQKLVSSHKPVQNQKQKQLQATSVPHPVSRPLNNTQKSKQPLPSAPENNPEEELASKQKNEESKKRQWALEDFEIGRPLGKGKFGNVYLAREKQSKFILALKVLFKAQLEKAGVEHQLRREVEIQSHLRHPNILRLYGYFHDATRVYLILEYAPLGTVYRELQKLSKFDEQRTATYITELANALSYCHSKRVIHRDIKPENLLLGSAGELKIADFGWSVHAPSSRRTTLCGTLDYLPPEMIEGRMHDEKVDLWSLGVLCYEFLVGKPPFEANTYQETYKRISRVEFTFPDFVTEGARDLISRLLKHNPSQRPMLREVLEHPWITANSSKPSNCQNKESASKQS

Test [4] deals with Casein kinase I isoform alpha (Homo sapiens, UniProt P48729).
Test [5] concerns the target Tyrosine-protein kinase JAK3 (Homo sapiens, UniProt P52333).
The target in test [6] is Mitogen-activated protein kinase 9 (Homo sapiens, UniProt P45984).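 Note: value from a kinome panel profiling assay, MAPK9 panel entry.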
Chain of Mitogen-activated protein kinase 9 (P45984 whole entry): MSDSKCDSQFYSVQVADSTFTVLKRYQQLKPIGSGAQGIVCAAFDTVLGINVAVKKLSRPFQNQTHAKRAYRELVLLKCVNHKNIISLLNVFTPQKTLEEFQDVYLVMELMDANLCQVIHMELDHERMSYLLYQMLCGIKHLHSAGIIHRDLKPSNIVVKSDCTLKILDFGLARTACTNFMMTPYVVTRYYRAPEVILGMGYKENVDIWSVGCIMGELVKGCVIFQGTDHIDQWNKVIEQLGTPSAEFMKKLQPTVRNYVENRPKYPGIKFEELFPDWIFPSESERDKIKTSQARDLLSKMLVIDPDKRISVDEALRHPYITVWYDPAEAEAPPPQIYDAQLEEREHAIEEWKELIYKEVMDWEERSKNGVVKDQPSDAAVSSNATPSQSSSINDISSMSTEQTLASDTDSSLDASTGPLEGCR
Test [7] addresses Serine/threonine-protein kinase TAO1 (Homo sapiens, UniProt Q7L7X3).
Test [8] deals with Glycogen synthase kinase-3 alpha (Homo sapiens, UniProt P49840).
A further test concerns the target Activated CDC42 kinase 1 (Homo sapiens, UniProt Q07912). As to the kind of experiment: Navigating the Kinome. Panel member name: ACK1.
For test [9], the target named is Serine/threonine-protein kinase Chk1 (Homo sapiens, UniProt O14757).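 Note: measured as one member of a kinome-wide kinase profiling panel.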
Test [10] addresses Insulin-like growth factor 1 receptor (Homo sapiens, UniProt P08069). As to the kind of experiment: Navigating the Kinome. Panel member name: IGF1R.
Test [11] addresses Dual specificity tyrosine-phosphorylation-regulated kinase 1B (Homo sapiens, UniProt Q9Y463). Briefly: Navigating the Kinome. Panel member name: DYRK1B.
A further test deals with Focal adhesion kinase 1 (Homo sapiens, UniProt Q05397).
Chain of Focal adhesion kinase 1 (Q05397 whole entry): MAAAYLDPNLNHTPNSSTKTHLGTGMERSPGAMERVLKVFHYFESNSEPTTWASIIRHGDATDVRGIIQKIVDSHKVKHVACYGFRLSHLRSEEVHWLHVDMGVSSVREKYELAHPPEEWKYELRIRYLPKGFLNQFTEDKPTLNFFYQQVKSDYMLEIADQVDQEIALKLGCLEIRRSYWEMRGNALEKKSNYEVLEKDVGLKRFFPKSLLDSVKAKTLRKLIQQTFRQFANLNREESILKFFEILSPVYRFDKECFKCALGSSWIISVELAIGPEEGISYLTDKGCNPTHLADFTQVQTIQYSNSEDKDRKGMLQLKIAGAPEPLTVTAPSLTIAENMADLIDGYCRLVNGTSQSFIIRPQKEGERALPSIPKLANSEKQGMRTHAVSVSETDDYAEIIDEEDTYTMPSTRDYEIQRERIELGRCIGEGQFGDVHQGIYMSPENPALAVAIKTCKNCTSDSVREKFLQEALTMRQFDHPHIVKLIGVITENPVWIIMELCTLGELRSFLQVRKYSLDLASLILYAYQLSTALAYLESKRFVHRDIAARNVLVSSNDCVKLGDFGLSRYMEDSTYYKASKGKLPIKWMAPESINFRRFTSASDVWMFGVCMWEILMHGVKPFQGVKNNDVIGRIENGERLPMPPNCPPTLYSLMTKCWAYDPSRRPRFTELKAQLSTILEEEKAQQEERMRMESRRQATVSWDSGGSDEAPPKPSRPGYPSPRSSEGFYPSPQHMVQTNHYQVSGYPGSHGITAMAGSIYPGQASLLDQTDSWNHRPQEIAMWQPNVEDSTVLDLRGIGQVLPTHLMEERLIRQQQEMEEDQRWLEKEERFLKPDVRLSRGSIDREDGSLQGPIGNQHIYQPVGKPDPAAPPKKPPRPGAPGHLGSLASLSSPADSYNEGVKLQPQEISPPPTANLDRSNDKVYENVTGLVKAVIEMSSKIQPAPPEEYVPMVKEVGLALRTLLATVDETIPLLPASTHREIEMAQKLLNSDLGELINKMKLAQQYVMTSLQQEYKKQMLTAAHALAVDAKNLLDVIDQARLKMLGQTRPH
For test [12], the target named is Leucine-rich repeat serine/threonine-protein kinase 2 (Homo sapiens, UniProt Q5S007).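 Note: value from a broad kinome-wide panel profiling study in which LRRK2 was one of the kinases tested.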
Test [13] deals with Tyrosine-protein kinase Fyn (Homo sapiens, UniProt P06241).
Test [14] deals with Cyclin-dependent kinase 8 (Homo sapiens, UniProt P49336). Briefly: Navigating the Kinome. Panel member name: CDK8.
The target in test [15] is Cyclin-dependent kinase 7 (Homo sapiens, UniProt P50613).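 Note: value comes from a kinome-wide kinase profiling panel in which CDK7 is one member.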
The target of test [16] is Cyclin-dependent kinase 9 (Homo sapiens, UniProt P50750).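 Note: value from the CDK9 entry of a kinome-spanning kinase panel.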
In test [17] the target is Dual specificity protein kinase CLK4 (Homo sapiens, UniProt Q9HAZ1).
Chain of Dual specificity protein kinase CLK4 (Q9HAZ1 whole entry): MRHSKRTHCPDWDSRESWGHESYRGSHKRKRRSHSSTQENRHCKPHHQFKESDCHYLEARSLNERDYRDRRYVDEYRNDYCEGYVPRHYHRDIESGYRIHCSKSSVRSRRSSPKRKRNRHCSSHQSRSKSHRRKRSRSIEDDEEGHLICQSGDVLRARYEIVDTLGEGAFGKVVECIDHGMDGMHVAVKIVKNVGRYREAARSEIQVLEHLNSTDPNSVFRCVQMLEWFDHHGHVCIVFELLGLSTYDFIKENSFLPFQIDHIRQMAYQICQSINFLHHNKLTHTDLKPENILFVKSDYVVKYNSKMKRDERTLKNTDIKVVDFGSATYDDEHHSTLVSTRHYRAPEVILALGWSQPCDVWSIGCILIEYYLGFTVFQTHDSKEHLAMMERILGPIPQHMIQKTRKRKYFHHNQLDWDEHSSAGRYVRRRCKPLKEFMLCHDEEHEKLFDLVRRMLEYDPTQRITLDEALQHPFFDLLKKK
The target of test [18] is Macrophage colony-stimulating factor 1 receptor (Homo sapiens, UniProt P07333).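 Note: value comes from the Navigating the Kinome screening panel, CSF1R member.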
Chain of Macrophage colony-stimulating factor 1 receptor (P07333 whole entry): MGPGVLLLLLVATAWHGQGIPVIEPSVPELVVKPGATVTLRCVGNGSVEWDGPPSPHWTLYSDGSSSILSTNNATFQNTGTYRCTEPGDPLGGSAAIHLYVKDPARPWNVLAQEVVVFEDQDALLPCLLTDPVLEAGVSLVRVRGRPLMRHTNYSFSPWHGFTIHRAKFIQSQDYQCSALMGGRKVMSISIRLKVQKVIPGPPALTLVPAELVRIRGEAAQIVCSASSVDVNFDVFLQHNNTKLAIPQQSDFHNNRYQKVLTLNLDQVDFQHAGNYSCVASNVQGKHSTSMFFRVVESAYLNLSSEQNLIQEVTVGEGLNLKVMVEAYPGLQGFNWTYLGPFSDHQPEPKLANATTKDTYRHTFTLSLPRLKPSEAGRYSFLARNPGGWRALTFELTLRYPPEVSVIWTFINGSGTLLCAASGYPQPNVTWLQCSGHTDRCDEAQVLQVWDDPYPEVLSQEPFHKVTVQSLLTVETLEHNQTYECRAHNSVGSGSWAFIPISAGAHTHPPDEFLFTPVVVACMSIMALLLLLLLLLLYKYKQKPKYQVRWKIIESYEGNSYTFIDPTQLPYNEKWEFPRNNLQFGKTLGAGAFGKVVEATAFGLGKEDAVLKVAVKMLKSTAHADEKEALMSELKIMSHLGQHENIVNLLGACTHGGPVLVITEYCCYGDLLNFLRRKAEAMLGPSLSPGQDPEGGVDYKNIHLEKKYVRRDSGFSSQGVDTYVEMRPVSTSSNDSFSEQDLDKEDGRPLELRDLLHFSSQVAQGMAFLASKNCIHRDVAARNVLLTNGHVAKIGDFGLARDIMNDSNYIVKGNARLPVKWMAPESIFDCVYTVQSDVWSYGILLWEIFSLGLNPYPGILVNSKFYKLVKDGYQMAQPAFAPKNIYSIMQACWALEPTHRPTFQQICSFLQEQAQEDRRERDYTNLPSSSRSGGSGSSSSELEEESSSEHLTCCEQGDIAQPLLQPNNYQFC

Chain of Activated CDC42 kinase 1 (Q07912 whole entry): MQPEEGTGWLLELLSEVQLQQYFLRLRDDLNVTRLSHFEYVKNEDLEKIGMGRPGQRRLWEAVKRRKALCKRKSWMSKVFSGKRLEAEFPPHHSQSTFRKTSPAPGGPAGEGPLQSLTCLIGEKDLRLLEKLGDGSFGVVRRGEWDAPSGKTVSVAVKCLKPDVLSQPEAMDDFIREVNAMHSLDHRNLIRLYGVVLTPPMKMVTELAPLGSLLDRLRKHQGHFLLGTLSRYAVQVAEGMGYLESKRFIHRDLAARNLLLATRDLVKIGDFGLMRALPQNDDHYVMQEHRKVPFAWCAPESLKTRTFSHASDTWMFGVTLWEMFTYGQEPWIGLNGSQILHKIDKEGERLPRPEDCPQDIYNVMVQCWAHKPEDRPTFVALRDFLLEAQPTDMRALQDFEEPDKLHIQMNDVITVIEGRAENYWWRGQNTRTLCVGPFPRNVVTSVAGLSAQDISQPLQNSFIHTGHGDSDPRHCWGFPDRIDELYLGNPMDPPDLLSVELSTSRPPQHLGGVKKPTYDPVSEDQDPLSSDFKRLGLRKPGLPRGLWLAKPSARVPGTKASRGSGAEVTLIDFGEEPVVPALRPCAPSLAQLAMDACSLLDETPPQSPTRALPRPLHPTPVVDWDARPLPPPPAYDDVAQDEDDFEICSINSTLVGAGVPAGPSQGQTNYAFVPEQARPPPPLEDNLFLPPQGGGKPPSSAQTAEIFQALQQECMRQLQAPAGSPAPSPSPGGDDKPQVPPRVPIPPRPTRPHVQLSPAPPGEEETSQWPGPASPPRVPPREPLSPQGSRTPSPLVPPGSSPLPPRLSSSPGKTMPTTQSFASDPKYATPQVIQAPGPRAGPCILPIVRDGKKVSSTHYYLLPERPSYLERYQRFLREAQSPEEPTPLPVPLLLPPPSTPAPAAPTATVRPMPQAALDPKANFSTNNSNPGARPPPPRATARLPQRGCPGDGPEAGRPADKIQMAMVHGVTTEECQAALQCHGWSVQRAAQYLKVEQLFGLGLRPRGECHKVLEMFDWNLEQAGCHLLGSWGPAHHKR

With `CCCNC(=O)c1c(N)n(CC2CCCO2)c2nc3ccccc3nc12` (configuration not stated), the IC50 in [1] is 58.6 µM (active).
Still for that read-out and setting: the same measure for `CCc1ccc(S(=O)(=O)/N=C2\C=C(Nc3ccc(O)cc3)C(=O)c3ccccc32)cc1`: 1.97 µM (active).
Turning to `COc1c(-c2nc3ccccc3[nH]2)c(O)cc2oc(C)cc(=O)c12`, the Ki in test [2] was 0.398 µM (active); in [3], 2 µM (active); at Aurora kinase A, 0.251 µM (active); in test [4] it was 1.58 µM (active); in test [5], 3.98 µM (active); in test [6], 2.51 µM (active). Further, the Ki was 3.98 µM (active) in test [7]; 1 µM (active) in test [8]; > 3.98 µM (inactive) at Activated CDC42 kinase 1; 0.0398 µM (active) in test [9]; > 2.51 µM (inactive) in test [10]; 0.398 µM (active) in [11]. Further, the Ki at Focal adhesion kinase 1 was 2.51 µM (active); in test [12] it was 0.794 µM (active); in test [13], 2 µM (active); in test [14] it was 0.316 µM (active); in test [15], 0.501 µM (active); in test [16], 0.158 µM (active). For the same molecule, the Ki was 0.0794 µM (active) in [17] and 2 µM (active) in test [18].
`COC(=O)c1c(N)nc2ccccn12`: the Ki in test [2] is > 100 µM (inactive); in test [3], 79.4 µM (active); at Aurora kinase A, > 63.1 µM (inactive); in test [4], 6.31 µM (active); in test [6] it was 31.6 µM (active); in test [7], 100 µM (active). In addition, the inhibitory constant (Ki) in test [11] was 20 µM (active); at Focal adhesion kinase 1 it was 79.4 µM (active); in test [12], 2.51 µM (active); in [14], 20 µM (active); in [15], 63.1 µM (active); in [16] it was 39.8 µM (active). In addition, the Ki is 3.98 µM (active) in test [17] and 79.4 µM (active) in test [18].
`Cc1ccc(F)c(NC(=O)Nc2ccc(-c3cccc4[nH]nc(N)c34)cc2)c1` [LINIFANIB]: the Ki in test [5] is > 5.01 µM (inactive); in test [8], > 3.98 µM (inactive); on Activated CDC42 kinase 1, > 3.98 µM (inactive); in test [9], > 3.16 µM (inactive); in [10], > 2.51 µM (inactive); in [13], > 6.31 µM (inactive).
